The test system of data set [1] is Brusone-Pilzes (Piricularia oryzae). In kind it is in vivo. The settings on record: Wirkstoff-Konzentration 0,8 g/m^2 applied to the water surface; rice (Asahi) inoculated 4 days later; assessed 7 days after inoculation; three pots per test.
The test system of data set [2] is Reispflanzen (Varietät: Asahi). The settings on record: in vivo.

Turning to `CC1(CCl)C(COC(=O)CCl)C1(Cl)Cl` [D-1, 2,2-Dichloro-(cis)-3-methyl-(trans)-3-chloromethylcyclopropanmethanol-chloroacetat], the “Bekämpfungs-Index (%)” value in data set [1] amounted to 100%. In data set [2], the Phyto-toxizität entry is reported as “-”.
As to `CC1(CCl)C(CO)C1(Cl)Cl` (stereo not drawn) [Verbindung d. Erfindung, 2,2-Dichloro-(cis)-3-methyl-(trans)-3-chloromethylcyclopropanmethanol], in data set [1], the “Bekämpfungs-Index (%)” value was 100%. Further, the Phyto-toxizität result in data set [2] is reported as “-”.

For the origin of these results see patent publication EP0135897A2 (priority 1983, dated 1985).
